Measured values reported in ChEMBL document CHEMBL1150830, “Polychlorinated acetamides from the cyanobacterium Microcoleus lyngbyaceus” (J Nat Prod, 2001).
Calls of active or inactive are those of the source. No cut-off for these calls is given here.

Test system: Human immunodeficiency virus 1
Test: Antiviral activity against HIV1 infected in human H9 cells assessed as inhibition of virus-induced cytopathic effect by tetrazolium-based method
Format: functional, organism-based

In the case of `CC(=O)NC(CCCC#CCC(Cl)(Cl)Cl)CCCC#CCC(Cl)(Cl)Cl`, the Activity is reported as “inactive”.
With `CC(=O)NC(CCCC#CCC(Cl)Cl)CCCC#CCC(Cl)(Cl)Cl` (configuration not stated) the Activity was “inactive”.
